Data published in ChEMBL document CHEMBL5528087, “RNA-Small-Molecule Interaction: Challenging the "Undruggable" Tag” (J Med Chem, 2024).

Columns and labels:
[1] = Binding affinity to SARS-Cov-2 RNA pseudoknot assessed as dissociation constant; design: species or system Severe acute respiratory syndrome coronavirus 2
[2] = molecular target: T1, Non-structural protein 4b (Hepacivirus hominis, UniProt F5B4I0); experiment: Binding affinity to Hepatitis C virus genotype 1 NS4B assessed as inhibition constant
T1 sequence (F5B4I0 whole entry): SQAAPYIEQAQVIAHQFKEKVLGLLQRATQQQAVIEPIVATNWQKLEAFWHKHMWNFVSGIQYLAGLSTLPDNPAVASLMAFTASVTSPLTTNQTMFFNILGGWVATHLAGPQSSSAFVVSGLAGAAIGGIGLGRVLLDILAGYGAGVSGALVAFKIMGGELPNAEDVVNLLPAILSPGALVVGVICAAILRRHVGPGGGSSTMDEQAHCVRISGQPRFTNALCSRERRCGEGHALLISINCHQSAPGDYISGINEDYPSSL

preQ1 riboswitch [3] = experiment: Binding affinity to Thermoanaerobacter tengcongensis 5-Cy5-PreQ1-RS RNA assessed as dissociation constant; type: nucleic-acid assay, Caldanaerobacter subterraneus subsp. tengcongensis
preQ1 riboswitch [4] = experiment: Binding affinity to Bacillus subtilis 5-Cy5-PreQ1-RS RNA assessed as dissociation constant; type: nucleic-acid assay
[5] = molecular target: T2, Survival of motor neuron-related-splicing factor 30 (Homo sapiens) (UniProt O75940); experiment: Inhibition of SMNDC1 (unknown origin) assessed as fold increase at 40 uM
T2 sequence (whole entry): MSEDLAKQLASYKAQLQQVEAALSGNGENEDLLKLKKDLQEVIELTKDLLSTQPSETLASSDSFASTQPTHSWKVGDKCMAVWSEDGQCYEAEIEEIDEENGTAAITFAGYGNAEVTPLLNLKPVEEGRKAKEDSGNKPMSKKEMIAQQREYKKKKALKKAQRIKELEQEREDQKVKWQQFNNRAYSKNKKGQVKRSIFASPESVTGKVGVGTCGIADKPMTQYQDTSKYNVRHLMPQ

Quadruplex DNA [6] = experiment: Binding affinity to TERRA G-Quadruplex (unknown origin) assessed as dissociation constant; type: nucleic-acid assay
Quadruplex DNA [7] = experiment: Binding affinity to TERRA G-Quadruplex (unknown origin) assessed as melting temperature; type: nucleic-acid assay

Work on `CCOC(=O)c1ccccc1NC(=O)N1CCCN(Cc2csc(C)n2)CC1` yielded a Kd [1] of 210 µM.

`CN(C)CCCNc1nc2ccc(N)cc2o1` showed a Ki [2] of 6 µM.

Compound `NCCOc1ccc2oc3ccccc3c2c1` has a Kd (preQ1 riboswitch [3]) of 0.457 µM and a Kd (preQ1 riboswitch [4]) of 0.534 µM.

Work on `O=C(c1cnc(C(=O)c2c[nH]c3cc(O)ccc23)[nH]1)c1c[nH]c2ccccc12` yielded a fold change (FC) [5] of 1.5.

`O=c1c2c(-c3ccco3)csc2nc2n1Cc1nc3scc(-c4ccco4)c3c(=O)n1C2` showed a Kd (Quadruplex DNA [6]) of 8.8 µM and a ΔTm (Quadruplex DNA [7]) of over 5 °C.
